Laboratory results published in paper PMC11091117, “A fluorescently-tagged tick kinin neuropeptide triggers peristalsis and labels tick midgut muscles” (Scientific Reports, 2024).
“Also recorded” adds a separate entry of the source.

Test system: tick midgut
Assay: Tick midgut contraction assay with EthoVision video analysis
Set-up: species or system Rhipicephalus sanguineus
Source text: Individual female ticks were immobilized on a Petri dish filled with wax by submerging their legs in melted wax heated with a soldering pencil (Electronic Control Soldering Station EC 1000, Weller, Apex, North Carolina, USA). Females were dissected under physiological saline following the protocol described by Tidwell et al.[51]. The tick was cut along the edge of the scutum/alloscutum using a stainless steel #12 scalpel blade (Integra Miltex, York, PA, USA), after which the scutum was removed with a pair of fine forceps. To expose the midgut for removal, the tracheae, Malpighian tubules, ovaries, rectal sac, and synganglion were removed with fine forceps in that order. The midgut was then carefully removed and placed into 200 µL of fresh tick saline (See Reagents and Peptides) on a single gasketed incubation chamber (500 µL, Size 22 × 40 mm, Electron Microscopy Sciences, Hatfield, PA). The midguts were then rinsed three times with the physiological tick saline for subsequent fluorescent labeling or activity experiments.
Midguts were dissected from immobilized female ticks under tick saline, as described under the Midgut Dissection. Ten different midguts were used for each of the two treatments, and ticks were of the same age and batch and had been maintained under the same conditions. Dissected midguts were placed individually into 200 µL of tick saline for 10 min at 28 °C on a gasketed glass coverslip (500 µL, Size 22 × 40 mm) serving as incubation chamber. […] After the final wash and removal of saline, 200 µL of saline were added, and a microscopy coverslip (24 × 60 mm, VWR, Radnor, PA) was placed over the gasketed portion of the incubation chamber, which height (0.5 mm) fits to prevent the midgut from floating, but still allows midgut peristalsis. The midguts were observed and filmed under a dissecting microscope (Olympus SZ61, Japan) equipped with an Infinity 5 camera (Teledyne Lumenera, Ottawa, ON, Canada). All videos were recorded for 1 min with the INFINITY ANALYZE 7 software (Teledyne Lumenera) at 30 frames/second with a 2464 × 2056 resolution. The field of view in all videos recorded represents 4 × 3.5 mm to capture the entire tick midguts under saline. All video files in Windows Media Video (.wmv) format obtained from the Infinity Analyze 7 software were converted to the MP4 format using CloudConvert (cloudconvert.com, Lunaweb, Munich, Germany) for analyses with the EthoVision XT 17 software (Noldus Information Technology, Wageningen, The Netherlands).
We used the EthoVision 17 XT software to quantify the “activity” (pixel change) of the midguts from the videos recorded. This software defines activity as the percentage of pixels that have changed in the entire defined arena between the current image and previous image. The videos are recorded in 2464 × 2056 resolution and the arena is set to be the entire video screen. Video files were uploaded into the program and analyzed starting from time zero to the end of the 60 s video. Detection settings for activity included the activity threshold which was set to 5 to achieve zero detection when the midgut was immobile. Although the video captured 30 frames (images) per s, for the video analysis we chose a “sample rate” of 7 samples /s, with sample rate being the number of images from the video the EthoVision program analyzes per second. To calculate activity, each pixel of the video image was compared from one image to the next, and the proportion of pixel changes was calculated by dividing the number of pixels changed from one image to the next by the total number of pixels in the image. Care was given for the midgut to occupy most of the arena, as the activity analyses will reflect the midgut movement as a proportion of the total arena. Midgut activity is observed as pixel changes, which are represented by the red-colored pixels in the S4 video. The mean pixel change per midgut was then determined by averaging the pixel changes from all samples within the recording period. […]

TMR-C-GTGEDQAFSPWGamide [TMR-RK8]
midgut contractions, S4 Video (in words) (1 µM TMR-RK8, after 1 min of exposure, 4X speed): Rapid contractions were observed shortly after treatment
midgut peristalsis/contractions (in words) (10 µM, 1 min, 28 °C, midguts of unfed females ex vivo, video recorded 1 min): inducing significant midgut peristalsis; also recorded: induced peristalsis
mean activity (mean pixel change, percentage of pixels changed in arena) (10 µM, 1 min, rinsed twice, 28 °C, tick saline, 60 s video, 7 samples/s, EthoVision XT 17, activity threshold 5, N = 10 midguts): 1%
mean activity of midguts compared to TMR-Scrambled (in words) (10 µM, N = 10 vs N = 10, for the duration of the videos): higher mean activity
pixels changing from each sample to the next (of 5,065,984 pixels per sample, 10 µM, 1 min, 28 °C, N = 10): about 50,660 pixels
movement of midguts relative to TMR-Scrambled treated midguts (ratio of mean activity, 10 µM, N = 10 per treatment): 10 factor
